For one series, the system named is HeLa cells. As to the kind of experiment: HeLa cell viability, MTT assay. It is filed as cell-based. The following applies: Homo sapiens, 50% reduction in percent of viable HeLa cells, read-out: IC50 against HeLa Cells. On the procedure:
Table 1 sets forth ROS-Activated compounds of the present invention, together with their IC50 values corresponding to a 50% reduction in the percent of viable HeLa cells in vitro as measured via MTT assay.
All synthesized compounds were purified to greater than 98% purity prior to cell testing. HeLa cell viability assays were performed using an MTT assay.
The general structure of the ROS-activated compounds disclosed herein was probed to determine how positions in the structure alter potency in aqueous media. Compounds were screened against HeLa cells to determine IC50 values. Cell viability was monitored by an MTT dye that forms a purple formazan product in viable cells that are undergoing metabolism. […] Errors reported are between two separate experiments; independent curve-fitting had r greater than 0.95).
A general note: Tetrazolium assays rely on reduction of a dye to a coloured formazan, in cell work by metabolically active cells.

Series [1] deals with human CD34+ blood stem/progenitor cells. As to the kind of experiment: Cytotoxicity, MTT assay on CD34+ blood stem/progenitor cells. The series is classed as cell-based. The following applies: normal blood stem cells, read-out: IC50 against CD34+ blood stem/progenitor cells. From the text: (§1) To assess the anti-cancer activity against AML, transformed cells were compared to closely related, non-transformed counterparts. In the case of AML, the generally accepted non-transformed cell of origin is the human CD34+ blood stem/progenitor cell. Assessing potency against normal blood stem cells is important since, without selective cytotoxicity, an agent will yield reduced efficacy and therapeutic potential. […] Therefore, a comparison of current agents and the ROS-activated compounds disclosed herein was carried out. (FIG. 3). Cytotoxicity was measured via MTT assay on CD34+ blood stem/progenitor cells (grey lines) and on the MA9.3 AML cell line (black lines), which was derived from the transformation of human CD34+ cells by introduction of the leukemia oncogene MLL-AF9.

The next series concerns MA9.3 AML cells. As to the kind of experiment: AML cytotoxicity, MTT assay on MA9.3 AML cell line. It is filed as cell-based, human. The following applies: read-out: IC50 against MA9.3 AML cells.
Description: as §1

In the next series the test system is 392-nucleotide dsDNA. As to the kind of experiment: Primer extension assay on 392-nucleotide dsDNA (DNA modification). The series is classed as biochemical. The following applies: dsDNA treated with agent; compound 25 followed by oxidative activation (Na2IrCl6).
For series [2], the system named is renal and CNS cancer cell lines. As to the kind of experiment: Sulforhodamine B viability assay, renal and CNS cancer cell lines. The following applies: panels of renal and CNS cancer cell lines, errors less than 25%. It is filed as cell-based. A general note: The SRB assay estimates cell density from bound dye.
The test system of the next series is leukemia cell lines. As to the kind of experiment: NCI-60 Sulforhodamine B growth inhibition, leukemia cell lines. The following applies: median in all leukemia cell lines tested. It is filed as cell-based. As to the method: (§2) Compounds 25 and 9 were evaluated for effects on the viability of the cell lines in the NCI-60 cell panel. […] Data is reported as growth inhibition GI50, rather than IC50, to reflect the change in cell counts relative to the starting number of cells.
(§3) Growth inhibition pattern induced by 25 and 9 based on the type of cancer was also analyzed. […] The majority of leukemia and renal cancer cell lines were above the median, indicating enhanced sensitivity to ROS-activating compounds. The current results further substantiate renal carcinoma as a potential target.

The subject of a further series is MOLT-4. As to the kind of experiment: NCI-60 Sulforhodamine B growth inhibition, MOLT-4. It is filed as cell-based. The following applies: Homo sapiens; MOLT-4, ALL model line. On the procedure:
as §2, §3

The next series relates to NCI-60 cell panel. As to the kind of experiment: NCI-60 cell panel, Sulforhodamine B growth inhibition. It is filed as cell-based. The following applies: distribution of GI50 over NCI-60 panel. As to the method:
as §2

The test system of another series is HL-60. As to the kind of experiment: NCI-60 Sulforhodamine B growth inhibition, HL-60. The following applies: Homo sapiens; HL-60, acute promyelocytic leukemia model. The series is classed as cell-based. As to the method:
as §2, §3

A further series has as its system RPMI-8226. As to the kind of experiment: NCI-60 Sulforhodamine B growth inhibition, RPMI-8226. The series is classed as cell-based. The following applies: Homo sapiens; RPMI-8226, plasmacytoma and myeloma cell line. On the procedure:
as §2, §3

Another series deals with CCRF-CEM. As to the kind of experiment: NCI-60 Sulforhodamine B growth inhibition, CCRF-CEM. It is filed as cell-based. The following applies: Homo sapiens, ALL model line. As to the method:
as §2, §3

A short description of series [3]: Oxidation and ROS-dependent hydrolysis of compound 3, monitored by reverse-phase HPLC. It is filed as physicochemical. From the text: The oxidative and ROS-activation of the instantly disclosed compounds was investigated. Water, one of the simplest nucleophile substrates, was examined under different oxidative conditions (FIG. 5). A model ROS-activated compound, compound 3, was used to explore the chemical reactivity of these agents (FIG. 5A).
Hydrolysis of compound 3 as a function of time was quantified by separation of the reaction products by reverse-phase HPLC (FIG. 5B). […] To obtain quantifiable data, time points were taken daily over one week.
Addition of the one-electron oxidant, […], led to quantitative hydrolysis of compound 3 with a half-life of 0.4±0.2 hours (FIG. 5B). The oxidation potential of Ir(IV) is 0.7 volts vs. Ag/AgCl making it an appropriate choice for oxidation of hydroquinone derivatives. In additional to oxidation, cells produce reactive oxygen species in the forms of hydroxyl radical and singlet oxygen. Copper and hydrogen peroxide can be used to produce hydroxyl radical. […] The extent of hydrolysis was dependent on the hydrogen peroxide concentration and was slow due to lack of ascorbate (data not shown). Oxidases like horseradish peroxidase reduce molecular oxygen to either hydrogen peroxide or water and at the same time oxidize a substrate with an appropriate potential. The oxidation of compound 3 was difficult to measure via HPLC since after one minute approximately half (53±13%) of compound 3 was hydrolyzed.

In another series the test system is Drosophila. As to the kind of experiment: Drosophila survival after microinjection, Ercc1 RNAi knockdown versus control. The following applies: 0.5 μL of 10 mM injected.

As a reminder, the GI50 is the concentration at which growth is held to half of that of the control. The low end stands for greater sensitivity of the cells, the high end for lower sensitivity of the cells. Broadly, the half-life is the time in which the quantity being followed falls by half. Higher therefore signals slow decline.

Like-named read-outs stand apart in the source and are kept apart here.

Regarding `CCN(CCSc1ccc(O)cc1)c1ccccc1` [Compound 15, 4-((2-(ethyl(phenyl)amino)ethyl)thio)phenol], the IC50 in the series with HeLa cells is 46 µM. As for `COc1ccc(N(CCOc2ccc(O)cc2)CCOc2ccc(O)cc2)cc1` [Compound 26, 4,4′-((((4-methoxyphenyl)azanediyl)bis(ethane-2,1-diyl))bis(oxy))diphenol], in the series on HeLa cells, the IC50 worked out at 15 µM. The same measure, in the same setting: the value for `CCN(CCOc1cccc(O)c1)c1ccccc1` [Compound 18, 3-(2-(ethyl(phenyl)amino)ethoxy)phenol] was 44 µM. On the same count and under the same terms, the value for `CN(CCCSc1ccc(O)cc1)c1ccccc1` [Compound 16, 4-((3-(methyl(phenyl)amino)propyl)thio)phenol] was 44 µM. For the compound `O=C(O)CCCc1ccc(N(CCCl)CCCl)cc1` [chlorambucil], the IC50 is 11 ± 1 µM in series [1] (Homo sapiens) and 8.7 ± 0.3 µM in the series with MA9.3 AML cells (Homo sapiens). Turning to `Oc1ccc(O)cc1` [Hydroquinone, reference compound], the IC50 in the series with HeLa cells came out at 161 µM. On the same count and under the same terms, with `CCN(CCOc1ccc(NC(C)=O)cc1)c1ccccc1` [Compound 21, N-(4-(2-(ethyl(phenyl)amino)ethoxy)phenyl)acetamide] the figure was 45 µM. On the same count and under the same terms, with `CCN(CCCCOc1ccc(O)cc1)c1ccccc1` [Compound 12, 4-(4-(ethyl(phenyl)amino)butoxy)phenol] the figure was 14 µM. Same read-out and setting: the value for `Oc1ccc(OCCNc2ccccc2)cc1` [Compound 1, 4-(2-(phenylamino)ethoxy)phenol] was 30 µM.

In the case of `O=C(O)CCCc1ccc(N(CCOc2ccc(O)cc2)CCOc2ccc(O)cc2)cc1` [Compound 28, 4-(4-(bis(2-(4-hydroxyphenoxy)ethyl)amino)phenyl)butanoic acid], the IC50 with HeLa cells worked out at 67 µM.

Turning to `N.N.[Cl][Pt][Cl]` [cisplatin], the values for the IC50 (in [1]; with MA9.3 AML cells) were 15 ± 2 µM and 14 ± 0.7 µM, respectively. Moreover, the “full-length extension product yield” value with 392-nucleotide dsDNA is on record as “no full-length extension product”. Regarding `CN(CCCCCOc1ccc(O)cc1)c1ccccc1` [Compound 13, 4-(5-(methyl(phenyl)amino)pentyloxy)phenol], in the series on HeLa cells, the IC50 is 9 µM. For the compound `CCN(CCOc1ccc(N)cc1)c1ccccc1` [Compound 20, N-(2-(4-aminophenoxy)ethyl)-N-ethylaniline], the IC50 with HeLa cells is over 125 µM. Same read-out and setting: the value for `COC(=O)CCCc1ccc(N(CCOc2ccc(O)cc2)CCOc2ccc(O)cc2)cc1` [Compound 27, methyl 4-(4-(bis(2-(4-hydroxyphenoxy)ethyl)amino)phenyl)butanoate] was 77 µM; that for `CCN(CC(=O)Nc1ccc(O)cc1)c1ccccc1` [Compound 17, 2-(ethyl(phenyl)amino)-N-(4-hydroxyphenyl)acetamide] was 108 µM.

For `COc1cccc2c1C(=O)c1c(O)c3c(c(O)c1C2=O)C[C@@](O)(C(=O)CO)C[C@@H]3O[C@H]1C[C@H](N)[C@H](O)[C@H](C)O1` [doxorubicin], the values for the IC50 (in [1] (Homo sapiens); with MA9.3 AML cells (Homo sapiens)) were 0.076 ± 0.018 µM and 0.086 ± 0.05 µM, respectively.

Turning to `CN(CCCCOc1ccc(O)cc1)c1ccccc1` [Compound 11, 4-(4-(methyl(phenyl)amino)butoxy)phenol], the IC50 in the series on HeLa cells was determined as 8 µM.

As for `CC(C)N(CCOc1ccc(O)cc1)c1ccccc1` [Compound 4, 4-(2-(isopropyl(phenyl)amino)ethoxy)phenol], the IC50 with HeLa cells was determined as 53 µM. Still for that read-out and setting: with `CN(CCOc1ccc(O)cc1)c1ccccc1` [Compound 2, 4-(2-(methyl(phenyl)amino)ethoxy)phenol] the figure was 18 µM. In the case of `CN(CCOc1ccc(O)cc1)Cc1ccccc1` [Compound 8, 4-(2-(benzyl(methyl)amino)ethoxy)phenol], the IC50 in the series with HeLa cells is 30 µM. For `CN(CCCOc1ccc(O)cc1)c1ccccc1` [Compound 9, 4-(3-(methyl(phenyl)amino)propoxy)phenol], the IC50 in [1] (Homo sapiens) was 5.4 ± 0.9 µM; in series [2], “micromolar range”; with HeLa cells it was 7 µM; in the series on MA9.3 AML cells (Homo sapiens) it was 0.7 ± 0.2 µM. Besides, the GI50 in the series on leukemia cell lines stood at 1.9 µM; with MOLT-4, 2 µM; in the series with HL-60 it was 0.9 µM; in the series on RPMI-8226, 1.2 µM; in the series on CCRF-CEM it was 0.263 µM. In addition, the “range of GI50 values” with NCI-60 cell panel is listed as 53 fold. Turning to `O=C1C=CC(=O)C=C1` [benzoquinone, reference compound], the IC50 in the series with HeLa cells was 227 µM. Still for that read-out and setting: with `CCN(CCOc1ccc(OC)cc1)c1ccccc1` [Compound 24, N-ethyl-N-(2-(4-methoxyphenoxy)ethyl)aniline] the figure was over 125 µM; with `CCN(CCCOc1ccc(O)cc1)c1ccccc1` [Compound 10, 4-(3-(ethyl(phenyl)amino)propoxy)phenol], 16 µM; with `Oc1ccc(OCCNc2ccc(Br)cc2)cc1` [Compound 7, 4-(2-((4-bromophenyl)amino)ethoxy)phenol], 31 µM. Still for that read-out and setting: the value for `CCN(CCOc1ccccc1O)c1ccccc1` [Compound 19, 2-(2-(ethyl(phenyl)amino)ethoxy)phenol] was 77 µM. On the same count and under the same terms, the value for `COc1ccc(N(C)CCOc2ccc(O)cc2)cc1` [Compound 6, 4-(2-((4-methoxyphenyl)(methyl)amino)ethoxy)phenol] was 13 µM. As to `CCN(CCOc1ccc(O)cc1)c1ccccc1` [Compound 3, 4-(2-(ethyl(phenyl)amino)ethoxy)phenol], in the series with HeLa cells, the IC50 worked out at 23 µM. Further, the half-life in series [3] (one-electron oxidant Na2Ir2Cl6 added, addition of one-electron oxidant Na2Ir2Cl6) was 0.4 ± 0.2 h; in series [3] (oxidation by copper chloride-hydrogen peroxide (hydroxyl radical)), 12.1 h; in [3] (phosphate buffer, no oxidant, assuming first order kinetics) it was 693 ± 42 h. Besides, the “death on Day 1” value stood at 60% with Drosophila (Drosophila lacking Ercc1 expression (da-GAL4/UAS-Ercc1RNAi)) and 10% in the series on Drosophila (control flies with wild-type Ercc1 expression (da-GAL4/+)). Regarding `COc1ccc(NCCOc2ccc(O)cc2)cc1` [Compound 5, 4-(2-((4-methoxyphenyl)amino)ethoxy)phenol], the IC50 with HeLa cells is 24 µM. For `CC(=O)Oc1ccc(OCCN(CCOc2ccc(OC(C)=O)cc2)c2ccccc2)cc1` [Compound 29, (((phenylazanediyl)bis(ethane-2,1-diyl))bis(oxy))bis(4,1-phenylene) diacetate], the IC50 in the series on HeLa cells amounted to 12 µM. `CCN(CCOc1ccc(N2CCCCC2)cc1)c1ccccc1` [Compound 22, N-ethyl-N-(2-(4-(piperidin-1-yl)phenoxy)ethyl)aniline]: the IC50 in the series with HeLa cells is over 125 µM. With `Nc1ccn([C@@H]2O[C@H](CO)[C@@H](O)[C@@H]2O)c(=O)n1` [ara-C, cytosine arabinoside], the IC50 in [1] came out at 0.59 ± 0.09 µM; in the series on MA9.3 AML cells, 0.92 ± 0.03 µM.

(Values after patent US9394233B2, “ROS-activated compounds as selective anti-cancer therapeutics” (University of Cincinnati, priority 2012, dated 2016).)
